From US4959359A, “Phenyl-thiazepinones as calcium regulating agents” (Hoffmann-La Roche Inc., priority 1989, dated 1990)
Structures can show the parent of a compound that is named as a salt.

Test system: isolated rat aortic strips
Assay: Contraction of rat aortic strips: inhibition of Ca++-induced contracture (calcium channel blocking activity)
Type: cell-based
Details: for inhibition at 0.3 µM: Rattus norvegicus, read-out: % Inhibition (contractile response at 2 mM Ca++ as compared to the control), heading: % Inhibition, 3×10^-7 M, 15 minutes prior to and during the calcium curve, depolarizing K+ 45 mM, diltiazem n = 10, A-D n = 1
Procedure: The calcium channel blocking activity of compounds of formula I was determined by measuring the effect of compounds of formula I on isolated rat aortic strips.
Aortas were excised from rats, placed in Krebs-Henseleit solution, modified so as to be calcium free, with a depolarized level of potassium (45 mM), and 0.02 mM EDTA. The aorta was then helically cut into a strip about 2 mm wide. This strip was then divided into four equal segments about 15 mm in length, which were hung in isolated tissue chambers, attached to the appropriate tranducers and subjected to 500 mg basal tension. After a period of stabilization under these conditions, calcium was introduced into the bath and the tissues contracted in a concentration dependent manner.
When no calcium is available in the bathing media, and the potential dependent calcium channels are opened by the high potassium level, contractility is dependent on the level of calcium introduced into the bath. By adding increments of calcium into the bath, a reproducible concentration-dependent contracture can be obtained. Treatment with a calcium channel blocker, such as diltiazem, or a compound of the invention results in an inhibition of this contractile response.
Each number in the table below was derived by first adding calcium alone to tissue and measuring contracture, and then adding calcium to tissue that had been exposed to 3×10^-7 M of the compound to be tested and measuring contracture. The number for untreated controls was derived by measuring contracture for two runs where calcium alone was added.
A compound tested was placed in the bath at 3×10^-7 M for 15 minutes prior to, and during the acquisition of the concentration-dependent curve to calcium for that particular compound. The inhibition in contractile response at 2 mMCa++ was measured as a per cent inhibition as compared to the control. The effects on the 2 mM Ca++ contracture are as follows:
That is, compound A inhibited almost three quarters of the contracture observed for the control at 2 mM Ca++. As used above, compounds A, B, C, and D are as follows: […]

Q: `COc1ccc([C@@H]2SC(c3ccccc3)=C(C)N(CCN(C)C)C(=O)[C@@H]2OC(C)=O)cc1` [Compound B, (+)-cis-6-(acetyloxy)-6,7-dihydro-7-(4-methoxyphenyl)-3-methyl-4-[2-dimethylamino)ethyl]-2-phenyl-1,4-thiazepin-5(4H)-one [S-(R*,R*)]-2,3-dihydroxybutanedioic acid hydrate] was tested. Which inhibition at 0.3 µM did it give?
A: 88.3%

Q: Which “responsiveness to 2 mM Ca++” value (15 minute exposure at 3×10^-7 M) does the source give for `COc1ccc([C@@H]2Sc3ccccc3N(CCN(C)C)C(=O)[C@@H]2OC(C)=O)cc1` [Diltiazem, reference compound] here?
A: marked reduction in responsiveness

Q: And the inhibition at 0.3 µM?
A: 71.1%

Q: For `COc1ccc([C@@H]2SC(c3ccccc3)=C(C)N(CCN(C)C)C(=O)[C@H]2OC(C)=O)cc1` (relative stereo) [D, trans-rac.-6-(acetyloxy)6,7-dihydro-7-(4-methoxyphenyl)-3-methyl-4-[2-dimethylamino)ethyl]-2-phenyl-1,4-thiazepin-5(4H)-one hydrochloride], which inhibition at 0.3 µM is on record?
A: 13.4%

Q: With `COc1ccc([C@H]2SC(c3ccccc3)=C(C)N(CCN(C)C)C(=O)[C@H]2OC(C)=O)cc1` (racemic) [Compound A, cis-rac.-6-(acetyloxy)-6,7-dihydro-7-(4-methoxyphenyl)-3-methyl-4-[2-(dimethylamino)ethyl]-2-phenyl-1,4-thiazepin-5(4H)-one (E)-2-butenedioate] as the molecule, how does the inhibition at 0.3 µM read?
A: 73.4%

Q: How did the inhibition at 0.3 µM turn out when `COc1ccc([C@H]2SC(c3ccccc3)=C(C)N(CCN(C)C)C(=O)[C@H]2OC(C)=O)cc1` [C, (-)-cis-6-(acetyloxy)-6,7-dihydro-7-(4-methoxyphenyl)-3-methyl-4-[2-dimethylamino)ethyl]-2-phenyl-1,4-thiazepin-5(4H)-one [R-(R*,R*)]-2,3-dihydroxybutanedioic acid sesquihydrate] was run?
A: 3.8%
